Each structure is given as a SMILES string.

For this experiment, the target named is b-Raf (V600E) (Homo sapiens (Human), UniProt P15056, V600E). Conditions: read-out: b-Raf IC-50; Table 2; AlphaScreen, 3 hours reaction. For orientation: Alpha assays give light when donor and acceptor beads are brought close together.
Chain of b-Raf (V600E) (P15056 whole entry V600E): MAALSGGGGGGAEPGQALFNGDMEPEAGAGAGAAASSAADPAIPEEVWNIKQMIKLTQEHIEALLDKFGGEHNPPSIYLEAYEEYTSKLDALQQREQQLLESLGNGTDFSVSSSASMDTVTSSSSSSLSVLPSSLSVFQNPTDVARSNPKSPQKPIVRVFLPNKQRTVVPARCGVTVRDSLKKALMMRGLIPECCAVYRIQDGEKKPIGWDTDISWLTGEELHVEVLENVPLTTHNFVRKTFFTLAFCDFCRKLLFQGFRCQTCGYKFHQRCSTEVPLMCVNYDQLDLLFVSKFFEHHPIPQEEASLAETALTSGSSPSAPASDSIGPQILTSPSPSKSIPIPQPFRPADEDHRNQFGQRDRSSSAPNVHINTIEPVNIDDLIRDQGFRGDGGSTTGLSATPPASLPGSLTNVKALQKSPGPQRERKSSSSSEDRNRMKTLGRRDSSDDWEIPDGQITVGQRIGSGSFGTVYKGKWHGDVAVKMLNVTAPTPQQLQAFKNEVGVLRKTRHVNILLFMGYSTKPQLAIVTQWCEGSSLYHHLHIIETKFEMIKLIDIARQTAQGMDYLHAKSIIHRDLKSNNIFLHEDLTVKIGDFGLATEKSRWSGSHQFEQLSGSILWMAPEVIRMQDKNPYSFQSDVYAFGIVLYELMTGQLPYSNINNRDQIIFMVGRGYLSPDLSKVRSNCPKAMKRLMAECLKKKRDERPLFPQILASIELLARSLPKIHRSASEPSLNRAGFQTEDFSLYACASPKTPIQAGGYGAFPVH
On to `CCn1cc(C(=O)Nc2ccc(C)c(-c3cc(N4CCOCC4)c(=O)n(C)c3)c2)c(C)n1` [Example 365, 1-ethyl-3-methyl-N-(4-methyl-3-(1-methyl-5-morpholino-6-oxo-1,6-dihydropyridin-3-yl)phenyl)-1H-pyrazole-4-carboxamide], for which the IC50 worked out at 85.9 nM. As for `Cc1ccc(NC(=O)c2cn(C)nc2C)cc1-c1cc(N2CCOCC2)c(=O)n(C)c1` [Example 366, 1,3-dimethyl-N-(4-methyl-3-(1-methyl-5-morpholino-6-oxo-1,6-dihydropyridin-3-yl)phenyl)-1H-pyrazole-4-carboxamide], the IC50 was found to be 100 nM. Then `Cc1ccc(NC(=O)c2cn(C(C)C)nc2C)cc1-c1cc(N2CCOCC2)c(=O)n(C)c1` [Example 367, 1-isopropyl-3-methyl-N-(4-methyl-3-(1-methyl-5-morpholino-6-oxo-1,6-dihydropyridin-3-yl)phenyl)-1H-pyrazole-4-carboxamide], with 12.6 nM; and `Cc1ccc(NC(=O)c2cc(C(F)(F)F)nn2C)cc1-c1cc(N2CCOCC2)c(=O)n(C)c1` [Example 369, 1-methyl-N-(4-methyl-3-(1-methyl-5-morpholino-6-oxo-1,6-dihydropyridin-3-yl)phenyl)-3-(trifluoromethyl)-1H-pyrazole-5-carboxamide], with 53.1 nM.

Consider `Cc1ccc(NC(=O)c2cc(C(C)C)on2)cc1-c1cc(N2CCOCC2)c(=O)n(C)c1` [Example 371, 5-isopropyl-N-(4-methyl-3-(1-methyl-5-morpholino-6-oxo-1,6-dihydropyridin-3-yl)phenyl)isoxazole-3-carboxamide], for which the IC50 came out at 0.8 nM. Then `Cc1ccc(NC(=O)c2cc(C3CC3)on2)cc1-c1cc(N2CCOCC2)c(=O)n(C)c1` [Example 372, 5-cyclopropyl-N-(4-methyl-3-(1-methyl-5-morpholino-6-oxo-1,6-dihydropyridin-3-yl)phenyl)isoxazole-3-carboxamide], with 0.7 nM; and `CCn1cc(C(=O)Nc2cnc(C)c(-c3cc(N4CCOCC4)c(=O)n(C)c3)c2)c(C)n1` [Example 373, N-(1′,2-dimethyl-5′-morpholino-6′-oxo-1′,6′-dihydro-[3,3′-bipyridin]-5-yl)-1-ethyl-3-methyl-1H-pyrazole-4-carboxamide], with 1100 nM.

Regarding `Cc1nn(C)cc1C(=O)Nc1cnc(C)c(-c2cc(N3CCOCC3)c(=O)n(C)c2)c1` [Example 374, N-(1′,2-dimethyl-5′-morpholino-6′-oxo-1′,6′-dihydro-[3,3′-bipyridin]-5-yl)-1,3-dimethyl-1H-pyrazole-4-carboxamide], the IC50 amounted to 3400 nM. Consider `Cc1nn(C(C)C)cc1C(=O)Nc1cnc(C)c(-c2cc(N3CCOCC3)c(=O)n(C)c2)c1` [Example 375, N-(1′,2-dimethyl-5′-morpholino-6′-oxo-1′,6′-dihydro-[3,3′-bipyridin]-5-yl)-1-isopropyl-3-methyl-1H-pyrazole-4-carboxamide], for which the IC50 was found to be 200 nM. As to `Cc1cc(C(=O)Nc2cnc(C)c(-c3cc(N4CCOCC4)c(=O)n(C)c3)c2)n(C)n1` [Example 376, N-(1′,2-dimethyl-5′-morpholino-6′-oxo-1′,6′-dihydro-[3,3′-bipyridin]-5-yl)-1,3-dimethyl-1H-pyrazole-5-carboxamide], the IC50 stood at 2800 nM. Take `Cc1ncc(NC(=O)c2cc(C3CC3)nn2C)cc1-c1cc(N2CCOCC2)c(=O)n(C)c1` [Example 377, 3-cyclopropyl-N-(1′,2-dimethyl-5′-morpholino-6′-oxo-1′,6′-dihydro-[3,3′-bipyridin]-5-yl)-1-methyl-1H-pyrazole-5-carboxamide]: the IC50 worked out at 200 nM. Under `Cc1ncc(NC(=O)c2cc(C3CC3)on2)cc1-c1cc(N2CCOCC2)c(=O)n(C)c1` [Example 380, 5-cyclopropyl-N-(1′,2-dimethyl-5′-morpholino-6′-oxo-1′,6′-dihydro-[3,3′-bipyridin]-5-yl)isoxazole-3-carboxamide] stands 12.5 nM. Take `Cc1cc(C(=O)Nc2ccc(C)c(-c3cc(N4CCOCC4)c(=O)n(C)c3)c2)n(C)n1` [Example 381, 1,3-dimethyl-N-(4-methyl-3-(1-methyl-5-morpholino-6-oxo-1,6-dihydropyridin-3-yl)phenyl)-1H-pyrazole-5-carboxamide]: the IC50 is 100 nM. Regarding `Cc1ncc(NC(=O)c2cc(C(F)(F)F)nn2C)cc1-c1cc(N2CCOCC2)c(=O)n(C)c1` [Example 382, N-(1′,2-dimethyl-5′-morpholino-6′-oxo-1′,6′-dihydro-[3,3′-bipyridin]-5-yl)-1-methyl-3-(trifluoromethyl)-1H-pyrazole-5-carboxamide], the IC50 is 900 nM. Consider `Cc1nc(C(=O)Nc2cnc(C)c(-c3cc(N4CCOCC4)c(=O)n(C)c3)c2)c(C)o1` [Example 383, N-(1′,2-dimethyl-5′-morpholino-6′-oxo-1′,6′-dihydro-[3,3′-bipyridin]-5-yl)-2,5-dimethyloxazole-4-carboxamide], for which the IC50 worked out at 2800 nM. Under `Cc1ncc(NC(=O)c2cccc(C(C)(C)C#N)c2)cc1-c1cc(N2CCOCC2)c(=O)n(C)c1` [Example 389, 3-(2-cyanopropan-2-yl)-N-(1′,2-dimethyl-5′-morpholino-6′-oxo-1′,6′-dihydro-[3,3′-bipyridin]-5-yl)benzamide] stands 64.2 nM. As to `Cc1ncc(NC(=O)c2ccnc(C(F)(F)F)c2)cc1-c1cc(N2CCOCC2)c(=O)n(C)c1` [Example 390, N-(1′,2-dimethyl-5′-morpholino-6′-oxo-1′,6′-dihydro-[3,3′-bipyridin]-5-yl)-2-(trifluoromethyl)isonicotinamide], the IC50 is 5.4 nM. `Cc1ncc(NC(=O)c2ccnc(C(C)(F)F)c2)cc1-c1cc(N2CCOCC2)c(=O)n(C)c1` [Example 391, 2-(1,1-difluoroethyl)-N-(1′,2-dimethyl-5′-morpholino-6′-oxo-1′,6′-dihydro-[3,3′-bipyridin]-5-yl)isonicotinamide]: the IC50 is 12.3 nM. As for `Cc1ncc(NC(=O)c2ccnc(C(F)F)c2)cc1-c1cc(N2CCOCC2)c(=O)n(C)c1` [Example 392, 2-(difluoromethyl)-N-(1′,2-dimethyl-5′-morpholino-6′-oxo-1′,6′-dihydro-[3,3′-bipyridin]-5-yl)isonicotinamide], the IC50 turned out to be 15.3 nM. With `Cc1ncc(NC(=O)c2cccc(C(C)(F)F)c2)cc1-c1cc(N2CCOCC2)c(=O)n(C)c1` [Example 393, 3-(1,1-difluoroethyl)-N-(1′,2-dimethyl-5′-morpholino-6′-oxo-1′,6′-dihydro-[3,3′-bipyridin]-5-yl)benzamide], the IC50 came to 4.6 nM. Consider `Cc1ncc(NC(=O)c2cccc(C(F)F)c2)cc1-c1cc(N2CCOCC2)c(=O)n(C)c1` [Example 394, 3-(difluoromethyl)-N-(1′,2-dimethyl-5′-morpholino-6′-oxo-1′,6′-dihydro-[3,3′-bipyridin]-5-yl)benzamide], for which the IC50 is 3.6 nM. For the compound `CCOc1cc(C(=O)Nc2cnc(C)c(-c3cc(N4CCOCC4)c(=O)n(C)c3)c2)ccc1F` [Example 395, N-(1′,2-dimethyl-5′-morpholino-6′-oxo-1′,6′-dihydro-[3,3′-bipyridin]-5-yl)-3-ethoxy-4-fluorobenzamide], the IC50 came to 9.8 nM. `Cc1ncc(NC(=O)c2ccc(F)c(OC(C)C)c2)cc1-c1cc(N2CCOCC2)c(=O)n(C)c1` [Example 396, N-(1′,2-dimethyl-5′-morpholino-6′-oxo-1′,6′-dihydro-[3,3′-bipyridin]-5-yl)-4-fluoro-3-isopropoxybenzamide]: the IC50 worked out at 10.8 nM. For the compound `CCOc1cccc(C(=O)Nc2cnc(C)c(-c3cc(N4CCOCC4)c(=O)n(C)c3)c2)c1` [Example 397, N-(1′,2-dimethyl-5′-morpholino-6′-oxo-1′,6′-dihydro-[3,3′-bipyridin]-5-yl)-3-ethoxybenzamide], the IC50 came out at 10 nM. As for `Cc1ncc(NC(=O)c2cccc(OC(C)C)c2)cc1-c1cc(N2CCOCC2)c(=O)n(C)c1` [Example 398, N-(1′,2-dimethyl-5′-morpholino-6′-oxo-1′,6′-dihydro-[3,3′-bipyridin]-5-yl)-3-isopropoxybenzamide], the IC50 was 8.4 nM. As for `Cc1ncc(NC(=O)c2ccnc(C(C)(C)C)c2)cc1-c1cc(N2CCOCC2)c(=O)n(C)c1` [Example 399, 2-(tert-butyl)-N-(1′,2-dimethyl-5′-morpholino-6′-oxo-1′,6′-dihydro-[3,3′-bipyridin]-5-yl)isonicotinamide], the IC50 was determined as 42.7 nM. `Cc1ncc(NC(=O)c2ccnc(C(C)C)c2)cc1-c1cc(N2CCOCC2)c(=O)n(C)c1` [Example 400, N-(1′,2-dimethyl-5′-morpholino-6′-oxo-1′,6′-dihydro-[3,3′-bipyridin]-5-yl)-2-isopropylisonicotinamide]: the IC50 was determined as 35.1 nM.

Turning to `CCN1CCN(c2cc(C(=O)Nc3cnc(C)c(-c4cc(N5CCOCC5)c(=O)n(C)c4)c3)cc(C(F)(F)F)c2)CC1` [Example 402, N-(1′,2-dimethyl-5′-morpholino-6′-oxo-1′,6′-dihydro-[3,3′-bipyridin]-5-yl)-3-(4-ethylpiperazin-1-yl)-5-(trifluoromethyl)benzamide], the IC50 stood at 100 nM. As to `Cc1ncc(NC(=O)c2cccc(C3(C#N)CC3)c2Cl)cc1-c1cc(N2CCOCC2)c(=O)n(C)c1` [Example 403, 2-chloro-3-(1-cyanocyclopropyl)-N-(1′,2-dimethyl-5′-morpholino-6′-oxo-1′,6′-dihydro-[3,3′-bipyridin]-5-yl)benzamide], the IC50 amounted to 62 nM. Consider `Cn1cc(-c2cc(NC(=O)c3ccnc(C(F)(F)F)c3)cnc2Cl)cc(N2CCOCC2)c1=O` [Example 404, N-(2-chloro-1′-methyl-5′-morpholino-6′-oxo-1′,6′-dihydro-[3,3′-bipyridin]-5-yl)-2-(trifluoromethyl)isonicotinamide], for which the IC50 amounted to 4.3 nM.

Regarding `Cn1cc(-c2cc(NC(=O)c3ccnc(C(C)(F)F)c3)cnc2Cl)cc(N2CCOCC2)c1=O` [Example 405, N-(2-chloro-1′-methyl-5′-morpholino-6′-oxo-1′,6′-dihydro-[3,3-bipyridin]-5-yl)-2-(1,1-difluoroethyl)isonicotinamide], the IC50 is 4.5 nM. Take `Cn1cc(-c2cc(NC(=O)c3cccc(C(F)(F)F)c3)cnc2Cl)cc(N2CCOCC2)c1=O` [Example 407, N-(2-chloro-1′-methyl-5′-morpholino-6′-oxo-1′,6′-dihydro-[3,3-bipyridin]-5-yl)-3-(trifluoromethyl)benzamide]: the IC50 was found to be 1.4 nM.

For the origin of these results see patent US9694016B2 (Novartis AG, priority 2013, dated 2017).
